Source: US9708314B2, “Heterocyclic amide compound” (NISSAN CHEMICAL INDUSTRIES, LTD., priority 2013, dated 2017)

Columns and labels:
Assay type in all cases: in vivo
Cyperus difformis = experiment: Test Example 3: herbicidal effect by application to foliage (Wagner pot, water depth 0.1-0.5 cm); conditions: Nineteenth Table; application to foliage; application herbicide amount 320 g/ha
Summary of the method: (§1)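 Scores (0–5) reflect herbicidal ratio three weeks after a foliar spray: 0 is 5% or less, 5 is 90% or more. Plants had grown 14 days in alluvial soil pots in a 25–30 °C greenhouse before treatment with water-diluted emulsion at a set g/ha.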

[1] = system: Echinochloa crus-galli var. crus-galli; experiment: as above; conditions: Nineteenth Table; application to foliage; application herbicide amount 320 g/ha
Summary of the method: as §1

Leptochloa chinensis = experiment: as above; conditions: Nineteenth Table; application to foliage; application herbicide amount 320 g/ha
Summary of the method: as §1

Abutilon theophrasti = experiment: Test Example 4: herbicidal effect by application to foliage (diluvial soil, plastic box); conditions: application to foliage, application herbicide amount 320 g/ha
Summary of the method: (§2)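 Emulsion-formulated compound, diluted to a predetermined g/ha dose, applied by small sprayer to leaves and stems of 14-day-old seedlings grown in sterilized diluvial soil. Effect rated on 0–5 herbicidal-ratio scale three weeks on.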

Alopecurus myosuroides = experiment: as above; conditions: application to foliage, application herbicide amount 320 g/ha
Summary of the method: as §2

Amaranthus retroflexus = experiment: as above; conditions: application to foliage, application herbicide amount 320 g/ha
Summary of the method: as §2

Apera spica-venti. = experiment: as above; conditions: application to foliage, application herbicide amount 320 g/ha
Summary of the method: as §2

Avena fatua = experiment: as above; conditions: application to foliage, application herbicide amount 320 g/ha
Summary of the method: as §2

Chenopodium album = experiment: as above; conditions: application to foliage, application herbicide amount 320 g/ha
Summary of the method: as §2

Digitaria ciliaris = experiment: as above; conditions: application to foliage, application herbicide amount 320 g/ha
Summary of the method: as §2

[2] = system: Echinochloa crus-galli var. crus-galli; experiment: as above; conditions: application to foliage, application herbicide amount 320 g/ha
Summary of the method: as §2

Galium spurium = experiment: as above; conditions: application to foliage, application herbicide amount 320 g/ha
Summary of the method: as §2

Lolium multiflorum Lam. = experiment: as above; conditions: application to foliage, application herbicide amount 320 g/ha
Summary of the method: as §2

Setaria viridis = experiment: as above; conditions: application to foliage, application herbicide amount 320 g/ha
Summary of the method: as §2

Stellaria media = experiment: as above; conditions: application to foliage, application herbicide amount 320 g/ha
Summary of the method: as §2

Veronica persica = experiment: as above; conditions: application to foliage, application herbicide amount 320 g/ha
Summary of the method: as §2

[3] = system: Beta vulgaris ssp. vulgaris; experiment: Test Example 4: effect on crop by application to foliage (diluvial soil, plastic box); conditions: application to foliage, application herbicide amount 320 g/ha
Summary of the method: as §2

Brassica campestris L. = experiment: as above; conditions: application to foliage, application herbicide amount 320 g/ha
Summary of the method: as §2

Glycine max = experiment: as above; conditions: application to foliage, application herbicide amount 320 g/ha
Summary of the method: as §2

Triticum aestivum = experiment: as above; conditions: application to foliage, application herbicide amount 320 g/ha
Summary of the method: as §2

Zea mays = experiment: as above; conditions: application to foliage, application herbicide amount 320 g/ha
Summary of the method: as §2

[4] = system: directly sowed Oryza sativa; experiment: as above; conditions: application to foliage, application herbicide amount 320 g/ha
Summary of the method: as §2

Row | SMILES | H (herbicidal effect grade) [1] | D (herbicidal effect grade) (Leptochloa chinensis) | M: herbicidal effect on Abutilon theophrasti (Abutilon theophrasti) | J: herbicidal effect on Alopecurus myosuroides (Alopecurus myosuroides) | N: herbicidal effect on Amaranthus retroflexus (Amaranthus retroflexus) | L: herbicidal effect on Apera spica-venti. (Apera spica-venti.) | I: herbicidal effect on Avena fatua (Avena fatua) | O: herbicidal effect on Chenopodium album (Chenopodium album) | F: herbicidal effect on Digitaria ciliaris (Digitaria ciliaris) | H: herbicidal effect on Echinochloa crus-galli var. crus-galli [2] | Q: herbicidal effect on Galium spurium (Galium spurium) | K: herbicidal effect on Lolium multiflorum Lam. (Lolium multiflorum Lam.) | G: herbicidal effect on Setaria viridis (Setaria viridis) | P: herbicidal effect on Stellaria media (Stellaria media) | R: herbicidal effect on Veronica persica (Veronica persica) | f: effect on crop, Beta vulgaris ssp. vulgaris [3] | g: effect on crop, Brassica campestris L. (Brassica campestris L.) | d: effect on crop, Glycine max (Glycine max) | e: effect on crop, Triticum aestivum (Triticum aestivum) | c: effect on crop, Zea mays (Zea mays) | further results
1 | C=CCc1nnc2c(C(=O)Nc3nnco3)ccc(C(F)(F)F)n12 [1-158] | 5 (Herbicidal ratio of 90% or more (almost completely withered)) | 4 (Herbicidal ratio of 70% or more and less than 90%) | 4 (Herbicidal ratio of 70% or more and less than 90%) | 1 (Herbicidal ratio of 5% or more and less than 20%) | 4 (Herbicidal ratio of 70% or more and less than 90%) | 3 (Herbicidal ratio of 40% or more and less than 70%) | 3 (Herbicidal ratio of 40% or more and less than 70%) | 5 (Herbicidal ratio of 90% or more (almost completely withered)) | 5 (Herbicidal ratio of 90% or more (almost completely withered)) | 5 (Herbicidal ratio of 90% or more (almost completely withered)) | 3 (Herbicidal ratio of 40% or more and less than 70%) | 2 (Herbicidal ratio of 20% or more and less than 40%) | 4 (Herbicidal ratio of 70% or more and less than 90%) | 5 (Herbicidal ratio of 90% or more (almost completely withered)) | 4 (Herbicidal ratio of 70% or more and less than 90%) | 5 (Herbicidal ratio of 90% or more (almost completely withered)) | 3 (Herbicidal ratio of 40% or more and less than 70%) | 4 (Herbicidal ratio of 70% or more and less than 90%) | 2 (Herbicidal ratio of 20% or more and less than 40%) | 0 (Herbicidal ratio of 5% or less (almost no effect)) | E (herbicidal effect grade) (Cyperus difformis): 4 (Herbicidal ratio of 70% or more and less than 90%); b: effect on crop, directly sowed Oryza sativa [4]: 0 (Herbicidal ratio of 5% or less (almost no effect))
2 | COCCc1nnc2c(C(=O)Nc3nnc(C)o3)ccc(C(F)(F)F)n12 [1-173] | 5 (Herbicidal ratio of 90% or more (almost completely withered)) | 4 (Herbicidal ratio of 70% or more and less than 90%) | 5 (Herbicidal ratio of 90% or more (almost completely withered)) | 1 (Herbicidal ratio of 5% or more and less than 20%) | 5 (Herbicidal ratio of 90% or more (almost completely withered)) | 1 (Herbicidal ratio of 5% or more and less than 20%) | 2 (Herbicidal ratio of 20% or more and less than 40%) | 5 (Herbicidal ratio of 90% or more (almost completely withered)) | 4 (Herbicidal ratio of 70% or more and less than 90%) | 5 (Herbicidal ratio of 90% or more (almost completely withered)) | 4 (Herbicidal ratio of 70% or more and less than 90%) | 1 (Herbicidal ratio of 5% or more and less than 20%) | 3 (Herbicidal ratio of 40% or more and less than 70%) | 5 (Herbicidal ratio of 90% or more (almost completely withered)) | 4 (Herbicidal ratio of 70% or more and less than 90%) | 5 (Herbicidal ratio of 90% or more (almost completely withered)) | 4 (Herbicidal ratio of 70% or more and less than 90%) | 4 (Herbicidal ratio of 70% or more and less than 90%) | 1 (Herbicidal ratio of 5% or more and less than 20%) | 0 (Herbicidal ratio of 5% or less (almost no effect)) | b: effect on crop, directly sowed Oryza sativa [4]: 3 (Herbicidal ratio of 40% or more and less than 70%)
